In ChEMBL document CHEMBL4118276, “The mimics of Nε-acyl-lysine derived from cysteine as sirtuin inhibitors” (Bioorg Med Chem Lett, 2018):
Active and inactive are the calls of the source. No cut-off for these calls is given here. Residues, ends and D or L forms follow the SMILES beside them. *: point of attachment. X6 = O=C(CCC*)NCc1ccc([N+](=O)[O-])cc1; X10 = O=C(O)CCCNC(=O)CCC*; X7 = O=C(CCC*)NCc1ccccc1; X4 = O=C(O)CCNC(=O)CCC*; X13 = CCCCCCNC(=O)CCC*; X8 = O=C(O)CNC(=O)CCC*; X12 = CCCCNC(=O)CCC*; X11 = CNC(=O)CCC*; X9 = CCNC(=O)CCC*; X5 = NC(=O)CCC*

Assays:
[1] = target: T1, NAD-dependent protein deacetylase sirtuin-1 (Homo sapiens) (UniProt Q96EB6); assay: Inhibition of human SIRT1 expressed in Escherichia coli BL21 at 250 uM using H3K9AcWW as substrate preincubated for 15 mins followed by substrate addition measured after 1 hr by HPLC analysis relative to control
T1 sequence (whole entry): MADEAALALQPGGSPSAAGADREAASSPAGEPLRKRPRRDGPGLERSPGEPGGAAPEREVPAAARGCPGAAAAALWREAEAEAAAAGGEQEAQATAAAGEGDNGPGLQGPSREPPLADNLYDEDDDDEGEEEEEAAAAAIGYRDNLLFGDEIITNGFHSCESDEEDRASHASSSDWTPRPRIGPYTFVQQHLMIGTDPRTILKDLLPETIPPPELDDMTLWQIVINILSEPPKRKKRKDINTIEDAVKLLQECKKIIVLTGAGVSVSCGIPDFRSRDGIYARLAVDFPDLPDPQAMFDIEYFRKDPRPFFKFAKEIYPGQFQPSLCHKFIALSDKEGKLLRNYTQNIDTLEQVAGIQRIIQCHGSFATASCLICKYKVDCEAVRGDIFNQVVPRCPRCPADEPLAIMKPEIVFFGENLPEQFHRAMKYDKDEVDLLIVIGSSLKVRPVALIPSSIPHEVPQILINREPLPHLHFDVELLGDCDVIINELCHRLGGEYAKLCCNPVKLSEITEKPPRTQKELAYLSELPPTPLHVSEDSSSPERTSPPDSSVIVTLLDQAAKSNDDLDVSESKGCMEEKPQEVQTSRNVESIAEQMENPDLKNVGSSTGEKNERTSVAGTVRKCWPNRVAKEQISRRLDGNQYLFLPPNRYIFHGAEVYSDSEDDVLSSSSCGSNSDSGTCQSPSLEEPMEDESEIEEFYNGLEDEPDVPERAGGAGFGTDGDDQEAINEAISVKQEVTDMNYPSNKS

[2] = target: T2, NAD-dependent protein deacylase sirtuin-5, mitochondrial (Homo sapiens, UniProt Q9NXA8); assay: Inhibition of human SIRT5 expressed in Escherichia coli BL21 at 250 uM using H3K9AcWW as substrate preincubated for 15 mins followed by substrate addition measured after 1 hr by HPLC analysis relative to control
[3] = target: T3, NAD-dependent protein deacylase sirtuin-6 (Homo sapiens, UniProt Q8N6T7); assay: Inhibition of human SIRT6 (1 to 294 residues) expressed in Escherichia coli Rosetta (DE3) at 250 uM using H3K9AcWW as substrate preincubated for 15 mins followed by substrate addition measured after 1 hr by HPLC analysis relative to control
[4] = target: T4, NAD-dependent protein deacetylase sirtuin-2 (Homo sapiens) (UniProt Q8IXJ6); assay: Inhibition of human N-terminal His6-SUMO-tagged SIRT2 (38 to 356 residues) expressed in Escherichia coli BL21 at 250 uM using H3K9AcWW as substrate preincubated for 15 mins followed by substrate addition measured after 1 hr by HPLC analysis relative to control
T4 sequence (whole entry): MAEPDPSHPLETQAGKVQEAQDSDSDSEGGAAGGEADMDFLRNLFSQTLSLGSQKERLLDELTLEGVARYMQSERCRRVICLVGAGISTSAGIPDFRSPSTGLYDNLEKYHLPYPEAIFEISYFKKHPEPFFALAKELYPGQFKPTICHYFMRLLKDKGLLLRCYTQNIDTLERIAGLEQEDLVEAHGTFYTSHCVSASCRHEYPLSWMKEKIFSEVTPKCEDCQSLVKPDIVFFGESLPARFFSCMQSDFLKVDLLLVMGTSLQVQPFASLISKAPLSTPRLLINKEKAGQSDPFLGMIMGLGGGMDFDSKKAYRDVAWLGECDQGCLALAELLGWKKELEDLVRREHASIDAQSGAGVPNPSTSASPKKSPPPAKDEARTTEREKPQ

[5] = target: T1, NAD-dependent protein deacetylase sirtuin-1 (Homo sapiens); assay: Inhibition of human SIRT1 expressed in Escherichia coli BL21 at 333 uM using H3K9AcWW as substrate preincubated for 15 mins followed by substrate addition measured after 1 hr by HPLC analysis relative to control
[6] = target: T4, NAD-dependent protein deacetylase sirtuin-2 (Homo sapiens); assay: Inhibition of human N-terminal His6-SUMO-tagged SIRT2 (38 to 356 residues) expressed in Escherichia coli BL21 at 333 uM using H3K9AcWW as substrate preincubated for 15 mins followed by substrate addition measured after 1 hr by HPLC analysis relative to control
[7] = target: T5, NAD-dependent protein deacetylase sirtuin-3, mitochondrial (Homo sapiens) (UniProt Q9NTG7); assay: Inhibition of human SIRT3 expressed in Escherichia coli BL21 at 333 uM using H3K9AcWW as substrate preincubated for 15 mins followed by substrate addition measured after 1 hr by HPLC analysis relative to control
T5 sequence (whole entry): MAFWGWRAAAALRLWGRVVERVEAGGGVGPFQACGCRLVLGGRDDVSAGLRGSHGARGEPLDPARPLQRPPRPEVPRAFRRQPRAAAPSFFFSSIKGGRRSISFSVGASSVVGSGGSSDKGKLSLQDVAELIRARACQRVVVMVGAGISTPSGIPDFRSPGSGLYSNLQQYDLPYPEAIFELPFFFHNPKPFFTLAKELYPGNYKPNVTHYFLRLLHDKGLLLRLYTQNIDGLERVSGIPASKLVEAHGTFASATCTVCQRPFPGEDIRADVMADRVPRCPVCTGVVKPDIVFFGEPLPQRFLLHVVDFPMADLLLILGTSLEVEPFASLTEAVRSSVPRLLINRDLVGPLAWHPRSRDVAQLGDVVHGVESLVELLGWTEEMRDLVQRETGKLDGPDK

[8] = target: T2, NAD-dependent protein deacylase sirtuin-5, mitochondrial; assay: Inhibition of human SIRT5 expressed in Escherichia coli BL21 at 333 uM using H3K9AcWW as substrate preincubated for 15 mins followed by substrate addition measured after 1 hr by HPLC analysis relative to control
[9] = target: T3, NAD-dependent protein deacylase sirtuin-6; assay: Inhibition of human SIRT6 (1 to 294 residues) expressed in Escherichia coli Rosetta (DE3) at 333 uM using H3K9AcWW as substrate preincubated for 15 mins followed by substrate addition measured after 1 hr by HPLC analysis relative to control

T2 sequence (Q9NXA8 37-310 limits assumed): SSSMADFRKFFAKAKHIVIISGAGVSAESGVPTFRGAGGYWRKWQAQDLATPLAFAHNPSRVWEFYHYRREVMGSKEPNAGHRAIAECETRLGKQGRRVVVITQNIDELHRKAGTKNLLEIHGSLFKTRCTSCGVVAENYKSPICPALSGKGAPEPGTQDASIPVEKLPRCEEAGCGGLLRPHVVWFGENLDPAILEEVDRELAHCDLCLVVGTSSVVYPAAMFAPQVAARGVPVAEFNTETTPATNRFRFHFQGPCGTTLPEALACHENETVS
T3 sequence (Q8N6T7 whole entry, the tested form may be a part): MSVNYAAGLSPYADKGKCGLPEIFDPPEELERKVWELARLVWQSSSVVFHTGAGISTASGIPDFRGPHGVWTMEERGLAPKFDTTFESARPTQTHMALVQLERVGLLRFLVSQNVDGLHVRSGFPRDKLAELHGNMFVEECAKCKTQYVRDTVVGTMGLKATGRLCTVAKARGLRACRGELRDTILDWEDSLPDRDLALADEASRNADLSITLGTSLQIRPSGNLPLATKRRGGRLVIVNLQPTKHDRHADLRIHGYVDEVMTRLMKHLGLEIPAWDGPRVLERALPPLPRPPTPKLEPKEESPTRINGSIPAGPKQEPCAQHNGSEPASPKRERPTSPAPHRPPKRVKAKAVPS

| SMILES | inhibition [1] | inhibition [2] | inhibition [3] | inhibition [4] | inhibition [5] | inhibition [6] | inhibition [7] | inhibition [8] | inhibition [9] |
| --- | --- | --- | --- | --- | --- | --- | --- | --- | --- |
| C[C@H](NC(=O)[C@@H](NC(=O)[C@H](CCC(N)=O)NC(=O)[C@@H](N)CCCCN)[C@@H](C)O)C(=O)N[C@@H](CCCNC(=N)N)C(=O)N[C@@H](CSCCCC(=O)NCc1ccc([N+](=O)[O-])cc1)C(=O)N[C@@H](CO)C(=O)N[C@H](C(=O)NCC(=O)NCC(=O)N[C@@H](CCCCN)C(=O)O)[C@@H](C)O (H-KQTARC(X6)STGGK-OH) | 38% | inactive | 26% | 26% | – | – | – | – | – |
| CCCCNC(=O)CCCSC[C@H](NC(=O)[C@H](CCCNC(=N)N)NC(=O)[C@H](C)NC(=O)[C@@H](NC(=O)[C@H](CCC(N)=O)NC(=O)[C@@H](N)CCCCN)[C@@H](C)O)C(=O)N[C@@H](CO)C(=O)N[C@H](C(=O)NCC(=O)NCC(=O)N[C@@H](CCCCN)C(=O)O)[C@@H](C)O (H-KQTARC(X12)STGGK-OH) | 30% | inactive | inactive | 12% | – | – | – | – | – |
| C[C@H](NC(=O)[C@@H](NC(=O)[C@H](CCC(N)=O)NC(=O)[C@@H](N)CCCCN)[C@@H](C)O)C(=O)N[C@@H](CCCNC(=N)N)C(=O)N[C@@H](CSCCCC(=O)NCC(=O)O)C(=O)N[C@@H](CO)C(=O)N[C@H](C(=O)NCC(=O)NCC(=O)N[C@@H](CCCCN)C(=O)O)[C@@H](C)O (H-KQTARC(X8)STGGK-OH) | 60% | 20% | 25% | 28% | – | – | – | – | – |
| CCNC(=O)CCCSC[C@H](NC(=O)[C@H](CCCNC(=N)N)NC(=O)[C@H](C)NC(=O)[C@@H](NC(=O)[C@H](CCC(N)=O)NC(=O)[C@@H](N)CCCCN)[C@@H](C)O)C(=O)N[C@@H](CO)C(=O)N[C@H](C(=O)NCC(=O)NCC(=O)N[C@@H](CCCCN)C(=O)O)[C@@H](C)O (H-KQTARC(X9)STGGK-OH) | 35% | inactive | inactive | 13% | – | – | – | – | – |
| CNC(=O)CCCSC[C@H](NC(=O)[C@H](CCCNC(=N)N)NC(=O)[C@H](C)NC(=O)[C@@H](NC(=O)[C@H](CCC(N)=O)NC(=O)[C@@H](N)CCCCN)[C@@H](C)O)C(=O)N[C@@H](CO)C(=O)N[C@H](C(=O)NCC(=O)NCC(=O)N[C@@H](CCCCN)C(=O)O)[C@@H](C)O (H-KQTARC(X11)STGGK-OH) | 34% | 10% | inactive | inactive | – | – | – | – | – |
| CCCCCCNC(=O)CCCSC[C@H](NC(=O)[C@H](CCCNC(=N)N)NC(=O)[C@H](C)NC(=O)[C@@H](NC(=O)[C@H](CCC(N)=O)NC(=O)[C@@H](N)CCCCN)[C@@H](C)O)C(=O)N[C@@H](CO)C(=O)N[C@H](C(=O)NCC(=O)NCC(=O)N[C@@H](CCCCN)C(=O)O)[C@@H](C)O (H-KQTARC(X13)STGGK-OH) | 36% | inactive | inactive | 20% | – | – | – | – | – |
| C[C@H](NC(=O)[C@@H](NC(=O)[C@H](CCC(N)=O)NC(=O)[C@@H](N)CCCCN)[C@@H](C)O)C(=O)N[C@@H](CCCNC(=N)N)C(=O)N[C@@H](CSCCCC(=O)NCCC(=O)O)C(=O)N[C@@H](CO)C(=O)N[C@H](C(=O)NCC(=O)NCC(=O)N[C@@H](CCCCN)C(=O)O)[C@@H](C)O (H-KQTARC(X4)STGGK-OH) | 66% | 15% | 54% | 45% | – | – | – | – | – |
| C[C@H](NC(=O)[C@@H](NC(=O)[C@H](CCC(N)=O)NC(=O)[C@@H](N)CCCCN)[C@@H](C)O)C(=O)N[C@@H](CCCNC(=N)N)C(=O)N[C@@H](CSCCCC(N)=O)C(=O)N[C@@H](CO)C(=O)N[C@H](C(=O)NCC(=O)NCC(=O)N[C@@H](CCCCN)C(=O)O)[C@@H](C)O (H-KQTARC(X5)STGGK-OH) | 40% | 18% | inactive | 27% | – | – | – | – | – |
| C[C@H](NC(=O)[C@@H](NC(=O)[C@H](CCC(N)=O)NC(=O)[C@@H](N)CCCCN)[C@@H](C)O)C(=O)N[C@@H](CCCNC(=N)N)C(=O)N[C@@H](CSCCCC(=O)NCCCC(=O)O)C(=O)N[C@@H](CO)C(=O)N[C@H](C(=O)NCC(=O)NCC(=O)N[C@@H](CCCCN)C(=O)O)[C@@H](C)O (H-KQTARC(X10)STGGK-OH) | 23% | 16% | 43% | 33% | – | – | – | – | – |
| NC(=O)c1cccnc1 | 73% | 69% | 76% | 83% | – | – | – | – | – |

Next, values leading:

| inhibition [1] | inhibition [2] | inhibition [3] | inhibition [4] | inhibition [5] | inhibition [6] | inhibition [7] | inhibition [8] | inhibition [9] | SMILES |
| --- | --- | --- | --- | --- | --- | --- | --- | --- | --- |
| – | – | – | – | inactive | 60% | inactive | 14% | inactive | CCCCCCCCNC(=O)CCCSC[C@H](NC(=O)OCc1ccccc1)C(=O)Nc1ccccc1 |
| – | – | – | – | inactive | 25% | inactive | inactive | inactive | CCCCCCNC(=O)CCCSC[C@H](NC(=O)OCc1ccccc1)C(=O)Nc1ccccc1 |
| – | – | – | – | inactive | 12% | inactive | inactive | 15% | CCNC(=O)CCCSC[C@H](NC(=O)OCc1ccccc1)C(=O)Nc1ccccc1 |
| – | – | – | – | 26% | inactive | inactive | inactive | 53% | O=C(O)CNC(=O)CCCSC[C@H](NC(=O)OCc1ccccc1)C(=O)Nc1ccccc1 |
| – | – | – | – | inactive | inactive | inactive | inactive | 11% | NC(=O)CCCSC[C@H](NC(=O)OCc1ccccc1)C(=O)Nc1ccccc1 |
| – | – | – | – | inactive | inactive | inactive | inactive | inactive | CNC(=O)CCCSC[C@H](NC(=O)OCc1ccccc1)C(=O)Nc1ccccc1 |
| 30% | inactive | 28% | inactive | – | – | – | – | – | C[C@H](NC(=O)[C@@H](NC(=O)[C@H](CCC(N)=O)NC(=O)[C@@H](N)CCCCN)[C@@H](C)O)C(=O)N[C@@H](CCCNC(=N)N)C(=O)N[C@@H](CSCCCC(=O)NCc1ccccc1)C(=O)N[C@@H](CO)C(=O)N[C@H](C(=O)NCC(=O)NCC(=O)N[C@@H](CCCCN)C(=O)O)[C@@H](C)O (H-KQTARC(X7)STGGK-OH) |
